Data published in patent US6734205B2, “Substituted guanidine derivatives” (Sumitomo Pharmaceuticals Company Limited, priority 1999, dated 2004).
Structures can show the parent of a compound that is named as a salt.

Row | SMILES | melting point
1 | Cn1c(C(=O)NC(=N)N)cc2c(OS(=O)(=O)O)cccc21 (as salt: sulfate) [Example 5, 2-[[[Amino(imino)methyl]amino]carbonyl]-1-methyl-1H-indol-4-yl Hydrogen Sulfate] | 249 to 250 °C (dec.)
2 | Cn1c(C(=O)NC(=N)N)cc2c(Cl)cc(CP(=O)(O)O)cc21 [Example 17, [2-[[[Amino(imino)methyl]amino]carbonyl]-4-chloro-1-methyl-1H-indol-6-yl]methylphosphonic Acid] | 265 to 282 °C (dec.)
3 | Cc1cc(CCP(=O)(O)O)cc2c1cc(C(=O)NC(=N)N)n2C [Example 54, 2-[2-[[[Amino(imino)methyl]amino]carbonyl]-1,4-dimethyl-1H-indol-6-yl]ethylphosphonic Acid] | 255 °C (dec.)
4 | Cn1c(C(=O)NC(=N)N)cc2c(C(F)(F)F)ccc(OCC(=O)O)c21 [Example 22, [[2-[[[Amino(imino)methyl]amino]carbonyl]-1-methyl-4-(trifluoromethyl)-1H-indol-7-yl]oxy]acetic Acid] | 224 to 233 °C (dec.)
5 | Cn1c(C(=O)NC(=N)N)cc2c(Cl)ccc(CCP(=O)(O)O)c21 [Example 53, 2-[2-[[[Amino(imino)methyl]amino]carbonyl]-4-chloro-1-methyl-1H-indol-7-yl]ethylphosphonic Acid] | 256 °C (dec.)
6 | Cn1c(C(=O)NC(=N)N)cc2c(Cl)ccc(OCP(=O)(O)O)c21 [Example 48, [[2-[[[Amino(imino)methyl]amino]carbonyl]-4-chloro-1-methyl-1H-indol-7-yl]oxy]methylphosphonic Acid] | 247 °C
7 | Cc1cc(OCP(=O)(O)O)cc2c1cc(C(=O)NC(=N)N)n2C [Example 49, [[2-[[[Amino(imino)methyl]amino]carbonyl]-1,4-dimethyl-1H-indol-6-yl]oxy]methylphosphonic Acid] | ≥ 300 °C
8 | Cn1c(C(=O)NC(=N)N)cc2c(Cl)ccc(OCC(=O)O)c21 [Example 24, [[2-[[[Amino(imino)methyl]amino]carbonyl]-4-chloro-1-methyl-1H-indol-7-yl]oxy]acetic Acid] | 210 to 225 °C (dec.)
9 | Cn1c(C(=O)NC(=N)N)cc2c(Cl)cc(OS(=O)(=O)O)cc21 (as salt: sulfate) [Example 11, 2-[[[Amino(imino)methyl]amino]carbonyl]-4-chloro-1-methyl-1H-indol-6-yl Hydrogen Sulfate] | 298 °C (dec.)
10 | Br.Cn1c(C(=O)NC(=N)N)cc2c(C(F)(F)F)ccc(CCP(=O)(O)O)c21 | 234 °C (dec.)
11 | Cc1c(OS(=O)(=O)O)ccc2c1cc(C(=O)NC(=N)N)n2C (as salt: sulfate) [Example 1, 2-[[[amino(imino)methyl]amino]-carbonyl]-1,4-dimethyl-1H-indol-5-yl Hydrogen Sulfate] | 267 to 268 °C (dec.)
12 | Cn1c(C(=O)NC(=N)N)cc2cccc(OS(=O)(=O)O)c21 (as salt: sulfate) [Example 3, 2-[[[Amino(imino)methyl]amino]carbonyl]-1-methyl-1H-indol-7-yl Hydrogen Sulfate] | 279 to 280 °C (dec.)
13 | Cn1c(C(=O)NC(=N)N)cc2cc(OS(=O)(=O)O)ccc21 (as salt: sulfate) [Example 6, 2-[[[Amino(imino)methyl]amino]carbonyl]-1-methyl-1H-indol-5-yl Hydrogen Sulfate] | 280 to 281 °C (dec.)
14 | Cc1ccc(OCP(=O)(O)O)c2c1cc(C(=O)NC(=N)N)n2C [Example 50, [[2-[[[Amino(imino)methyl]amino]carbonyl]-1,4-dimethyl-1H-indol-7-yl]oxy]methylphosphonic Acid] | 270 °C (dec.)
15 | N=C(N)NC(=O)c1cc2c(C(F)(F)F)cccc2n1CCCS(=O)(=O)O [Example 28, 3-[2-[[[Amino(imino)methyl]amino]carbonyl]-4-(trifluoromethyl)-1H-indol-1-yl]-1-propanesulfonic Acid] | > 300 °C
16 | Cc1ccc(OS(=O)(=O)O)c2c1cc(C(=O)NC(=N)N)n2C (as salt: sulfate) [Example 4, 2-[[[amino(imino)methyl]amino]-carbonyl]-1,4-dimethyl-1H-indol-7-yl Hydrogen Sulfate] | > 315 °C (dec.)
17 | Cn1c(C(=O)NC(=N)N)cc2c(C(F)(F)F)ccc(OCP(=O)(O)O)c21 [Example 46, [[2-[[[Amino(imino)methyl]amino]carbonyl]-1-methyl-4-(trifluoromethyl)-1H-indol-7-yl]oxy]methylphosphonic Acid] | 260 °C (dec.)
18 | CS(=O)(=O)O.Cn1c(C(=O)NC(=N)N)cc2c(C(F)(F)F)cc(P(=O)(O)O)cc21 | 286 °C (dec.)
19 | Cc1ccc(CP(=O)(O)O)c2c1cc(C(=O)NC(=N)N)n2C [Example 20, [2-[[[Amino(imino)methyl]amino]carbonyl]-1,4-dimethyl-1H-indol-7-yl]methylphosphonic Acid] | 239 to 280 °C (dec.)
20 | Cn1c(C(=O)NC(=N)N)cc2c(C(F)(F)F)ccc(CS(=O)(=O)O)c21 [Example 38, [2-[[[Amino(imino)methyl]amino]carbonyl]-1-methyl-4-(trifluoromethyl)-1H-indol-7-yl]methanesulfonic Acid] | ≥ 300 °C
21 | Cc1cccc2c1cc(C(=O)NC(=N)N)n2CCCS(=O)(=O)O [Example 29, 3-[2-[[[Amino(imino)methyl]amino]carbonyl]-4-methyl-1H-indol-1-yl]-1-propanesulfonic Acid] | 298 °C (dec.)
22 | Cn1c(C(=O)NC(=N)N)cc2c(C(F)(F)F)cc(CCP(=O)(O)O)cc21 [Example 51, 2-[2-[[[amino(imino)methyl]-amino]carbonyl]-1-methyl-4-(trifluoromethyl)-1H-indol-6-yl]ethylphosphonic Acid] | 277 °C (dec.)
23 | Cc1cc(OCCCS(=O)(=O)O)cc2c1cc(C(=O)NC(=N)N)n2C [Example 35, 3-[[2-[[[Amino(imino)methyl]amino]carbonyl]-1,4-dimethyl-1H-indol-6-yl]oxy]-1-propanesulfonic Acid] | 290 °C (dec.)
24 | Cn1c(C(=O)NC(=N)N)cc2c(Cl)cc(OCCCS(=O)(=O)O)cc21 [Example 34, 3-[[2-[[[Amino(imino)methyl]amino]carbonyl]-4-chloro-1-methyl-1H-indol-6-yl]oxy]-1-propanesulfonic Acid] | 325 °C (dec.)
25 | Cc1ccc(OCCCS(=O)(=O)O)c2c1cc(C(=O)NC(=N)N)n2C [Example 36, 3-[[2-[[[Amino(imino)methyl]amino]carbonyl]-1,4-dimethyl-1H-indol-7-yl]oxy]-1-propanesulfonic Acid] | ≥ 278 °C (dec.)
26 | Cn1c(C(=O)NC(=N)N)cc2c(Cl)ccc(OS(=O)(=O)O)c21 (as salt: sulfate) [Example 14, 2-[[[Amino(imino)methyl]amino]carbonyl]-4-chloro-1-methyl-1H-indol-7-yl Hydrogen Sulfate] | 338 °C (dec.)
27 | Cn1c(C(=O)NC(=N)N)cc2c(C(F)(F)F)cc(OCC(=O)O)cc21 [Example 21, [[2-[[[amino(imino)methyl]-amino]carbonyl]-1-methyl-4-(trifluoromethyl)-1H-indol-6-yl]oxy]acetic Acid] | 250 to 266 °C (dec.)
